# Experimental data taken from patent publication US10105414B2, “Peptides derived from RS1 which down-regulate glucose absorption after a glucose rich meal and increase insulin sensitivity” (Julius-Maximilians-Universität Würzburg, priority 2014, dated 2018).
# Changes are numbered by the printed parent chain. Names may count otherwise. Like-named read-outs stand apart in the source and are kept apart here.
# B1: hRS1-Reg(S45A): hRS1-Reg with serine 45 replaced by alanine to prevent phosphorylation (protein)
# chain: SSGQSPDVGNPMSLARSVSASVCPIKPSDADRIEPKAVKALKASAEFQLNSEKKEHLSLQDLSDHASSADHAPTDQSPAMPMQ
# modifications: left off: small tags and cut ends
# notes: hRS1-Reg with serine 45 replaced by alanine to prevent phosphorylation
# B2: hRS1-Reg(S45E): hRS1-Reg with serine 45 replaced by glutamate to mimick phosphorylation (protein)
# chain: B1 chain with A30E
# modifications: left off: small tags and cut ends
# notes: hRS1-Reg with serine 45 replaced by glutamate to mimick phosphorylation
# B3: hRS1-Reg(S20A): hRS1-Reg mutant preventing phosphorylation at serine in position 20 (protein)
# chain: B1 chain with S5A, A30S
# modifications: left off: small tags and cut ends
# B4: hRS1-Reg(S20E): hRS1-Reg, the first/N-terminal QSP motive is replaced by QEP (SEQ ID No. 9) (protein)
# chain: B1 chain with S5E, A30S
# modifications: hRS1-Reg(S20E)
# B5: mRS1-Reg(S19E): mRS1-Reg, first/N-terminal QSP motive replaced by QEP (SEQ ID No. 10), coupled to hydrogel nanoparticles for gavage (protein)
# chain: PSGQEPEVGSPTSLARSVSASVCAIKPGDPNSIESLAMEATKASAEFQTNSKKTDPPPLQVLPDLASSAEQSLAMPFH
# modifications: coupled to hydrogel nanoparticles; mRS1-Reg(S19E)
# Columns and labels:
# [1] = tested on: hCNT1; experiment: hCNT1-mediated uridine uptake in Xenopus laevis oocytes after injection of peptides; format: cell-based, human; settings: no AMG injected; for uptake of 5 μM [3H]uridine expressed by hCNT1: low intracellular glucose
# Experimental: (§1) Selected oocytes were injected with 50 nl of water containing cRNAs (2.5 ng of hSGLT1 or 0.5 ng of hCNT1). For expression oocytes were incubated for 2-3 days at 16° C. in modified Barth's solution with gentamycin. Noninjected control oocytes were incubated in parallel.
# (§2) Before uptake measurements were started, 50 nl of K-Ori buffer containing peptides, polypeptides, 1 pM of calmodulin stimulated kinase 2 (CK2) inhibitor KN93 (Calbiochem San Diego. Calif.), 3 mM of the omithinedecarboxlase inhibitor difluoromethylornithine DFMO and/or or 100 pmol α-methyl-α-D-glucopyranoside (AMG) were injected and the oocytes were incubated for 1 h at room temperature. Uptake was measured in Ori buffer at room temperature. Measurements in transporter expressing oocytes were corrected for measurements in noninjected oocytes. Uptake of 50 μM [^14C]AMG was measured after 15 min incubation and washing in ice-cold Ori buffer containing 1 mM phlorizin. Uptake of 5 μM [^3H]uridine was measured after 15 min incubation and washing in ice-cold Ori buffer. Oocytes were solubilized in 5% (w/v) SDS and analyzed for radioactivity by scintillation counting.
# (§3) For comparison of mean values from 2 groups the Student's t-test for unpaired samples was employed.
# [2] = tested on: hCNT3; experiment: hCNT3-mediated uridine uptake in Xenopus laevis oocytes after injection of peptides; format: cell-based, human; settings: low intracellular glucose, no AMG injected
# Experimental: FIG. 9. […] Posttransciptional downregulation of hCNT1 and hCNT3 was measured without injection of AMG. […] One hour later uptake of 5 μM [^3H]uridine was measured.
# as §2
# [3] = tested on: hSGLT1; experiment: hSGLT1-mediated AMG uptake in Xenopus laevis oocytes 1 h after injection of peptides; format: cell-based, human; settings: for down-regulation of hSGLT1: without injection of AMG (<10 μM); for affinity for down-regulation of hSGLT1 compared with hRS1-Reg wildtype: low intracellular glucose; for effect of intracellular AMG on the affinity for down-regulation of hSGLT1: without versus with injection of AMG
# Experimental: as §1, §2, §3
# [4] = tested on: mSGLT1; settings: 5 mM tripeptide, 30 min, 37° C., 5 mM D-glucose
# Experimental: (§4) Standardised t areas of human small intestinal mucosa (FIGS. 13,19) or 1 cm segments of everted mouse small intestine (FIGS. 14,15,20) were washed three times at 37° C. with Krebs-Ringer buffer containing 5 mM D-glucose and incubated for 30 min at 37° C. in Krebs-Ringer buffer containing 5 mM D-glucose plus different concentrations of tripeptides. Thereafter the tissue was washed three times at 0° C. in Krebs-Ringer buffer without glucose and uptake measurements were performed.
# (§5) For measurement of SGLT1 mediated glucose uptake, the everted segments of mouse small intestine or defined areas of human mucosa were incubated for 2 min at 37° C. with Krebs-Ringer buffer containing 10 μM [^14C]AMG with or without 0.2 mM phlorizin. Uptake was stopped by transferring the segments into ice cold Krebs-Ringer buffer containing 0.2 mM phlorizin for 5 min. After washing with ice cold Krebs-Ringer buffer the intestinal segments or pieces of human mucosa were dissolved in 0.5 ml Soluence-350) (Perkin Elmer Inc. Waltham Mass., USA). Radioactivity was analysed by liquid scintillation counting. Phlorizin inhibited AMG uptake per cm length or per standard area of the mucosa was calculated.
# Thereafter the segments were washed with PBS buffer and phlorizin inhibited uptake of 10 μM [^14C]AMG was measured.
# [5] = tested on: mSGLT1; settings: RS1−/− mice starved over night; gavage 20 μmol per mouse; after 2 h
# Experimental: as §5
# After 2 h the animals were killed, their small intestines were everted and phlorizin inhibited uptake of 10 μM [^14C]AMG Into segments of the everted jejunum was measured (FIG. 12A).
# [6] = tested on: hSGLT1; settings: cited from earlier work
# [7] = tested on: hSGLT1; settings: 5 mM D-glucose, 30 min
# Experimental: Jejunal segments which were routinely dissected during bariatric operations of highly obese patients were stored for 1-3 h on ice in Dulbecco's modified Eagle's medium containing 5 mM D-glucose. The mucosa was isolated and circular areas of the mucosa were dissected using a punching instrument.
# as §4, §5
# Next, it was investigated which of the QXP-type tripeptides are capable to downregulate hSGLT1 expression in human small intestine in the presence of high glucose. Jejunal samples that were obtained during bariatric surgery of obese patients (males and females with a mean age of 50 years with a mean body mass index of 50) were used. […] A part of the jejumum which is routinely removed during bariatric surgery, was carried to the laboratory using ice-cold culture medium containing 6 mM D-glucose. Part of the mucosa was dissected and identical areas of the mucosa were isolated using a punching instrument. The mucosal pieces were washed with glucose free buffer and incubated for 30 min at 37° C. in tissue culture medium (pH 6.4) containing 5 mM D-glucose and different QXP-type tripeptides. Thereafter the sample were washed two times with PBS buffer (pH 7.4, 37° C.) and incubated for 2 min at 37° C. in PBS (pH 7.4) containing 100 mM sodium and 10 μM [^14C]AMG. The incubation was performed in the absence and presence of 200 μM of the SGLT1 inhibitor phlorizin. Thereafter the samples were washed with ice-cold PBS, the tissue was dissolved, and radioactivity was determined by liquid scintillation counting. The phorizin inhibited AMG uptake was calculated.
# [8] = tested on: mSGLT1; experiment: Phlorizin inhibited AMG uptake into everted small intestine after gavage of mice with mRS1-Reg coupled to hydrogel nanoparticles; format: in vivo, mouse; settings: gavage 1 nmol coupled to nanoparticles, 2 h
# Experimental: Inversed miniemulsions were prepared from 2.5 ml hexane containing 50.3 mg Span 80 (Sigma, Taufkirchen, Germany) and 16.7 mg TWEEN 80™ (Sigma) and 0.4 ml 20 mM Hepes pH 7.4 containing 100 mg of thiol-functionalized linear poly(glycidol) polymer (Groll (2009) Journal of Polymer Science 47,5543-5549), 0.5 mg […] (TAT-peptide, Peptides International, Louisville, Ky., USA), and 0.28 mg cysteine-terminated RS1-Reg peptide. In control nanohydrogels the RS1-Reg peptide was omitted. The nanogels were prepared as described (Groll (2009) Journal of Polymer Science 47,5543-5549). Shortly, the organic and aqueous phase were combined, stirred, and a miniemulsion was prepared by ultrasonication at 0° C. For formation of disulphide bridges 60 μL of 0.1 M H2O2 in water were added. The mixture was sonicated for 60 s and incubated for 25 min at room temperature. Oxidation was quenched by acidification and the nanogels were separated by centrifugation. The aqueous layer containing the nanogels was separated and washed four times with a tetrahydrofuran/water (20%/80%)-mixture to remove the surfactants and unreacted polymer. Remaining organic solvents and acid were removed by dialysis against water. The nanohydrogel suspension was stored up to two weeks stored at 4° C.
# Male Rs1−/− mice or wildtype mice (Osswald (2005) Mol Cell Biol. 25, 78-87) kept on standard diet were starved over night and gavaged with 200 μl water (adjusted with HCl to pH 5.5) containing 10 mg nanohydrohydrogel that was loaded with 45 μg mRS1-Reg mutant. As a control unloaded nanohydrogel was used. […] The jejunum was cut into 1 cm long segments.
# Radioactivity was analysed by liquid scintillation counting.
# RS1−/− mice starved overnight were gavaged with 200 μl empty NPs (control) or 200 μl NPs loaded with 1 nmol mRS1-Reg(S19A) or 1 nmol mRS1-Reg(S19E). […] 2 h after gavage with mRS1-Reg mutants coupled to NPs, phlorizin (200 μM) Inhibited uptake of 10 μM AMG labelled containing tracer [^14C]AMG after 2 min incubation at 37° C. (FIG. 21A, C) or uptake of 1 mM AMG labelled with tracer [^14C]AMG after 2 min incubation at 37° C. was measured (FIG. 21B, D). […] Since AMG is rapidly transported by mSGLT1 into the enterocytes the intracellular concentration increases within seconds to values higher than 0.25 mM when the cells were incubated with 1 mM AMG. […] In contrast phlorizin-inhibited uptake of 10 μM AMG or 1 mM AMG was inhibited by 26 and 30% respectively. […] The data further indicate that gavage of a mouse with 1 nmol mRS1-Reg(S19E) is sufficient to downregulate SGLT1 in the presence of low and high intracelluar glucose.
# [9] = 5 pM, intracellular AMG ~0.25 mM
molecule,measurement,setting,value
"SDSDRIEP [octapeptide corresponding to a particular motif of human RS1, reference compound]",uptake of 5 μM [3H]uridine expressed by hCNT1,[1],decreased
same,uptake of 5 μM [3H]uridine expressed by hCNT3,[2],decreased
"glutamine-serine-proline [QSP, reference compound]",inhibition of SGLT1 mediated transport,"[3]; 50 nM tripeptide, no AMG injected",inhibition
same,effect on hSGLT1 expression,[3]; 250 μM intracellular AMG,abolished
same,IC50,"[3]; without injection of AMG (intracellular AMG <10 μM), read-out: IC50 for down-regulation of hSGLT1-mediated AMG uptake",0.2 nM
same,decrease of SGLT1 mediated uptake of 10 μM [14C]AMG,[4]; wildtype mice,no significant effect
same,decrease of phlorizin inhibited uptake of 10 μM [14C]AMG into everted jejunum,[5],no significant effect
same,uptake of 5 μM [3H]uridine expressed by hCNT1,[1],not able to inhibit
same,uptake of 5 μM [3H]uridine expressed by hCNT3,[2],not able to inhibit
same,inhibition of hSGLT1 expression in oocytes,"[6]; 200 nM QSP, intracellular AMG <10 μM",40-50%
same,inhibition of hSGLT1 expression in oocytes after injection of AMG,"[6]; 200 nM QSP, intracellular AMG higher than 250 μM",abolished
same,down-regulation of hSGLT1 at raised intracellular AMG,[6]; intracellular AMG higher than 0.1 mM,blunted
glutamine-serinethiophosphate-proline [QSthiophosphateP],degree of down-regulation of hSGLT1,[3]; [9],~75%
same,down-regulation of hSGLT1 expression,[3]; [9],down-regulated
same,down-regulation of hSGLT1,[3]; 5 pM,not
same,down-regulation of hSGLT1 expression,"[3]; 500 pM, intracellular AMG ~0.25 mM",down-regulated
same,down-regulation of hSGLT1,[3]; 500 pM,down-regulated
same,decrease of SGLT1 mediated uptake of 10 μM [14C]AMG,[4]; RS1−/− mice,significantly inhibited
same,decrease of SGLT1 mediated uptake of 10 μM [14C]AMG,[4]; wildtype mice,significantly inhibited
same,down-regulation of hSGLT1 mediated AMG uptake,[7]; 5 mM,~30%
same,down-regulation of hSGLT1 mediated AMG uptake,[7]; 15 mM,~40%
B1,affinity for down-regulation of hSGLT1 compared with hRS1-Reg wildtype,[3]; no AMG injected,similar
same,effect of intracellular AMG on the affinity for down-regulation of hSGLT1,[3],abolished
B2,affinity for down-regulation of hSGLT1 compared with hRS1-Reg wildtype,[3]; no AMG injected,increases affinity
same,effect of intracellular AMG on the affinity for down-regulation of hSGLT1,[3],abolished
same,affinity for down-regulation of hCNT1 compared with hRS1-Reg wildtype,[1],similar
same,effect of mimicking phosphorylation in position 45 on affinity for down-regulation of hCNT1,[1],decreases affinity
B3,affinity for down-regulation of hSGLT1 compared with hRS1-Reg wildtype,[3]; no AMG injected,does not alter the affinity
B4,affinity for down-regulation of hSGLT1 higher than hRS1-Reg wildtype,[3]; high intracellular glucose (AMG ~250 μM),15 Mill
same,increase of affinity (decrease of IC50) for down-regulation of hSGLT1 at high versus low intracellular AMG,[3]; intracellular AMG ~250 μM versus low,300 fold
B5,inhibition of phlorizin-inhibited uptake of 10 μM AMG,[8]; RS1−/− mice,26%
same,inhibition of phlorizin-inhibited uptake of 1 mM AMG,[8]; RS1−/− mice,30%
same,decrease of uptake of 1 mM AMG (high intracellular glucose),[8]; wild type mice,40%
same,uptake of 10 μM AMG (low intracellular glucose),[8]; wild type mice,not altered
